# Tests used:
# B16 melanoma xenograft = assay: In vivo antitumor activity, B16 melanoma xenograft model; settings: 90 mg/kg for 14 days (text: orally; table footnote: i.p.), C57BL/6J mice
# Protocol: (§1) Male C57BL/6J mice were employed to establish the xenograft tumor model by subcutaneous injection (S.C.) of 6 × 10^6 B16 cells. […] In the end of treatment, the mice were sacrificed and the tumor were peeled off and weighted. The inhibition rate of tumor growth was calculated. All animal protocols were conformed to the Guidelines for the Care and Use of Laboratory Animals approved by the Animal Care and Use Committee of Yantai University.
# MCF-7 cell line = assay: In vitro antiproliferative activity, MTT assay, MCF-7; type: cell-based; settings: Homo sapiens, MCF7, 48 h
# Protocol: (§2) HCT116, MCF-7 and B16 cell lines were plated on 96-well plates at a density of 5000 per well and incubated overnight. […] After 48 h, 0.5% MTT (Amresco, Solon, OH, USA) solution was added to each well, and further incubation for 4 h, then cells were centrifuged at 2500 rpm for 15 min and removed from the culture medium. And add 150 μL DMSO to dissolve the formazan. After mixing for 5 min, optical density was detected at 570 nm on a microplate reader (Thermo, Waltham, MA, USA).
# HCT116 cell line = assay: In vitro antiproliferative activity, MTT assay, HCT116; type: cell-based; settings: Homo sapiens, HCT-116, 48 h
# Protocol: as §2
# VEGFR-2 = VEGFR-2 (Homo sapiens, UniProt P35968); assay: VEGFR-2 inhibitory assay (caliper mobility shift assay)
# Sequence of VEGFR-2 (P35968 20-1356): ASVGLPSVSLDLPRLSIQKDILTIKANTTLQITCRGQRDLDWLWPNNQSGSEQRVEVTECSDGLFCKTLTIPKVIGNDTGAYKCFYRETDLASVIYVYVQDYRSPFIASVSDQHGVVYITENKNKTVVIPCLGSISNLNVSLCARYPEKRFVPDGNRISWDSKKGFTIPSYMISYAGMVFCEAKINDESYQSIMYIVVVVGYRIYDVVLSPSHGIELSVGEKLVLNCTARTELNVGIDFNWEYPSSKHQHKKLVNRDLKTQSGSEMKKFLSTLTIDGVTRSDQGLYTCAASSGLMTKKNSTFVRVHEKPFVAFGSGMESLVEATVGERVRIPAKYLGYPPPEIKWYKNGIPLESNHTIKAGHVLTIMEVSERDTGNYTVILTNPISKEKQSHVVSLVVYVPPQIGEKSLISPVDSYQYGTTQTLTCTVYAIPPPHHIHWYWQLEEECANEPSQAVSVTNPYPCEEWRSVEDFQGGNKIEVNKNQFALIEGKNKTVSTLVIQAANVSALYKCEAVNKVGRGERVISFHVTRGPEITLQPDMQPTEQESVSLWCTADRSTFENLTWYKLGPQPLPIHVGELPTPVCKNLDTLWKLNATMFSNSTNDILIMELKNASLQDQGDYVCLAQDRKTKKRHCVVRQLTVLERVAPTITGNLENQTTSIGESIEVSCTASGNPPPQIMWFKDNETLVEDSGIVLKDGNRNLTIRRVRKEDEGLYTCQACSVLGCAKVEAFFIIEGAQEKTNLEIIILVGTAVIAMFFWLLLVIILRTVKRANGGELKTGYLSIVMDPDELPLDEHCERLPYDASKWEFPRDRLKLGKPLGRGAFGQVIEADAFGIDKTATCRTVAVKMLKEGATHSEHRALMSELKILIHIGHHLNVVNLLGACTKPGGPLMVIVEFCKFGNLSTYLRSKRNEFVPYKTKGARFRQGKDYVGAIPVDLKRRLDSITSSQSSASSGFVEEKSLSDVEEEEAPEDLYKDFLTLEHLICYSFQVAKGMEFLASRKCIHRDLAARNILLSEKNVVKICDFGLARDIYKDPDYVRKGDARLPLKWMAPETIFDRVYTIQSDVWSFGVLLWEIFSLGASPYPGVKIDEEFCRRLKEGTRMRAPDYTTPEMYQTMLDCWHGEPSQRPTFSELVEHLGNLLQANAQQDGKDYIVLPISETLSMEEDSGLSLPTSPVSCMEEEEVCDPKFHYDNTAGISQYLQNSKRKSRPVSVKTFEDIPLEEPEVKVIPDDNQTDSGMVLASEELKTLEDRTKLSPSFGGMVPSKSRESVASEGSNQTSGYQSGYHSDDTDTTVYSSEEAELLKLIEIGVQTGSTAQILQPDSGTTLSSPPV
# Protocol: (§3) Each of these compounds was dissolved in DMSO at 10 mM, diluted to 50× of the final desired highest inhibitor concentration in reaction by 100% DMSO, and 100 μL of each dilution was added to one well on 96-well storage plate, and diluted by transferring 10 μL to 90 μL of 100% DMSO in the next well. Besides, 100 μL of 100% DMSO was added to two empty wells for no compound control and no enzyme control in the same 96-well plate respectively. The plate was marked as source plate. 10 μL of each compound was transferred from the source plate to a new 96-well plate, which was marked as the intermediate plate. Next, 90 μL of 1× kinase base buffer was added to each well of the intermediate plate, and mixed by shaking vigorously for 10 min. A total of 5 μL of each well from the 96-well intermediate plate was transferred to a 384-well plate in duplicate.
# (§4) Kinase reaction: kinase in 1× kinase base buffer, FAM-labeled peptide and ATP in the 1× kinase base buffer were added, then 10 μL of 2.5× enzyme solution was added to each well of the 384-well assay plate. After incubating at room temperature for 10 min, 10 μL of 2.5× peptide solution was added to each well of the 384-well assay plate. […] Finally, the kinase reactions were quenched with 25 μL of EDTA and the plates were washed. The dates were collected and converted with the caliper program.
# EGFR = EGFR (Homo sapiens, UniProt P00533); assay: EGFR inhibitory assay (caliper mobility shift assay)
# Sequence of EGFR (P00533 25-1210): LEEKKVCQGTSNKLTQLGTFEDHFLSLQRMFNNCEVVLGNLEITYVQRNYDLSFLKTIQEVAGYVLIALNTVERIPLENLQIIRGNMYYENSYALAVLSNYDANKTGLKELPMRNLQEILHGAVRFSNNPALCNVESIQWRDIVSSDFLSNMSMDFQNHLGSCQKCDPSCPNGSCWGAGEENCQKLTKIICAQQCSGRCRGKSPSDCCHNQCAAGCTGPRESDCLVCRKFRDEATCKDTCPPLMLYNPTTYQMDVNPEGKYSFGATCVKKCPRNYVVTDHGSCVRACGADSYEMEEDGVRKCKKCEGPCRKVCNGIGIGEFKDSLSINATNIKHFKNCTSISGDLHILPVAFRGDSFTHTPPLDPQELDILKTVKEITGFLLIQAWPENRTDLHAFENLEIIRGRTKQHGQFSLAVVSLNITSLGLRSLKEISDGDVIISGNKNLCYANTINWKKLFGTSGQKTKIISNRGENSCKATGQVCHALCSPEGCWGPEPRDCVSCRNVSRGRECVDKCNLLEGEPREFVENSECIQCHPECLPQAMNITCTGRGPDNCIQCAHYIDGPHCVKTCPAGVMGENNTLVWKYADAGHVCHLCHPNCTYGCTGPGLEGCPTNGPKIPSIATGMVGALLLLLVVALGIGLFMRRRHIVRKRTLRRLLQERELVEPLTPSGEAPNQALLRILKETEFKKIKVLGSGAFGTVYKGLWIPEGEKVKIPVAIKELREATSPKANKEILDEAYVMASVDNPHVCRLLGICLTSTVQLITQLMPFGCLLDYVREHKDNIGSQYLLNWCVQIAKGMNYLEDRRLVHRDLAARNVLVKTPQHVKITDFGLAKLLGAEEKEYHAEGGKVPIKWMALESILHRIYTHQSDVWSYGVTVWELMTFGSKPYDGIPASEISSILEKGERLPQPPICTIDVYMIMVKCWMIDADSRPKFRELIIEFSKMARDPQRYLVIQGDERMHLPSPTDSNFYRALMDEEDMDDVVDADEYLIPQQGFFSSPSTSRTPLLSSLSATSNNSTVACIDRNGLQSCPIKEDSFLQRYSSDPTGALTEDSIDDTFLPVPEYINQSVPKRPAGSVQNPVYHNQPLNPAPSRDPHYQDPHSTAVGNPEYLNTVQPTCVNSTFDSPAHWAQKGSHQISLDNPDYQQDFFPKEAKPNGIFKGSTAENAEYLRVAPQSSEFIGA
# Protocol: as §3, §4
# [1] = Body weight in B16 melanoma xenograft model; type: in vivo; settings: B16 tumor-bearing C57BL/6J mice; for Body Weight End: 90 mg/kg for 14 days, end of treatment; for Body Weight Initial: 90 mg/kg, before treatment
# Protocol: as §1
# B16 cell line = assay: In vitro antiproliferative activity, MTT assay, B16; type: cell-based; settings: Mus musculus, 48 h
# Protocol: as §2
IC50 (MCF-7 cell line) [µM],IC50 (HCT116 cell line) [µM],IC50 (VEGFR-2) [µM],IC50 (EGFR) [µM],IC50 (B16 cell line) [µM],melting point [°C],Structure (SMILES),Inhibition Rate of tumor growth (B16 melanoma xenograft) [%],Tumor Weight (B16 melanoma xenograft) [g],Body Weight End [1] [g],Body Weight Initial [1] [g],Inhibition Rate of tumor growth (B16 melanoma xenograft; listed as Sorafenib) [%]
17.7,9.13,0.05,0.02,6.11,,"COc1cc2ncnc(Oc3cccc(NC(=S)Nc4ccc(Cl)c(C(F)(F)F)c4)c3)c2cc1OC [Compound 10b, 1-(4-Chloro-3-trifluoromethylphenyl)-3-[3-(6,7-dimethoxyquinazolin-4-yloxy)phenyl]thiourea]",49.22,0.65 ± 0.22,19.5 ± 3.0,18.9 ± 1.8,
26.5,> 100,> 10,> 10,> 100,138.4 to 140,"COc1cc2ncnc(Oc3cccc(NC(=S)Nc4ccc(C)cc4)c3)c2cc1OC [Compound 10k, 1-p-tolyl-3-[3-(6,7-dimethoxyquinazolin-4-yloxy)phenyl]thiourea]",,,,,
19,9.57,0.09,0.02,12.2,168.2 to 171,"COc1cc2ncnc(Sc3cccc(NC(=S)Nc4cc(C(F)(F)F)cc(C(F)(F)F)c4)c3)c2cc1OC [Compound 10o, 1-(3,5-Ditrifluoromethylphenyl)-3-[3-(6,7-dimethoxyquinazolin-4-ylsulfanyl)phenyl]thiourea]",,,,,
18.8,58.6,> 10,> 10,54,171.5 to 174,"COc1cc2ncnc(Oc3cccc(NC(=S)Nc4ccc(OC(F)(F)F)cc4)c3)c2cc1OC [Compound 10f, 1-(4-Trifluoromethoxyphenyl)-3-[3-(6,7-dimethoxyquinazolin-4-yloxy)phenyl]thiourea]",,,,,
38.1,37.4,0.19,0.04,16.9,130.5 to 133,"COc1cc2ncnc(Oc3cccc(NC(=S)Nc4ccc(F)c(C(F)(F)F)c4)c3)c2cc1OC [Compound 10a, 1-[3-(6,7-Dimethoxyquinazolin-4-yloxy)phenyl]-3-(4-fluoro-3-trifluoromethylphenyl)thiourea]",,,,,
15.7,8.35,0.08,0.01,5.57,150.3 to 152,"COc1cc2ncnc(Sc3cccc(NC(=S)Nc4ccc(Br)c(C(F)(F)F)c4)c3)c2cc1OC [Compound 10q, 1-(4-Bromo-3-trifluoromethylphenyl)-3-[3-(6,7-dimethoxyquinazolin-4-ylsulfanyl)phenyl] thiourea]",64.06,0.46 ± 0.14,20.2 ± 2.7,19.1 ± 2.7,
20.9,8.11,0.07,0.01,7.89,162.2 to 164,"COc1cc2ncnc(Sc3cccc(NC(=S)Nc4ccc(Cl)c(C(F)(F)F)c4)c3)c2cc1OC [Compound 10m, 1-(4-Chloro-3-trifluoromethylphenyl)-3-[3-(6,7-dimethoxyquinazolin-4-ylsulfanyl)phenyl] thiourea]",20.31,1.02 ± 0.36,20.9 ± 1.6,19.2 ± 2.1,
32.4,64.5,> 10,> 10,68.4,138 to 139.3,"COc1cc2ncnc(Sc3cccc(NC(=S)Nc4ccc(OC(F)(F)F)cc4)c3)c2cc1OC [Compound 10n, 1-(4-Trifluoromethoxyphenyl)-3-[3-(6,7-dimethoxyquinazolin-4-ylsulfanyl)phenyl]thiourea]",,,,,
17.1,19.8,> 10,7.71,24.5,187.4 to 188.2,"COc1cc2ncnc(Oc3cccc(NC(=S)Nc4ccc(Cl)cc4Cl)c3)c2cc1OC [Compound 10g, 1-(2,4-Dichlorophenyl)-3-[3-(6,7-dimethoxyquinazolin-4-yloxy)phenyl]thiourea]",,,,,
17.9,10.6,,,9.29,,"CNC(=O)c1cc(Oc2ccc(NC(=O)Nc3ccc(Cl)c(C(F)(F)F)c3)cc2)ccn1 [sorafenib, reference compound]",31.25,0.88 ± 0.46,21.3 ± 2.4,20.7 ± 2.1,31.25
26.4,23.1,6.93,2.86,57.6,124.8 to 126.1,"COc1cc2ncnc(Sc3cccc(NC(=S)Nc4ccc(Cl)cc4)c3)c2cc1OC [Compound 10t, 1-(4-Chlorophenyl)-3-[3-(6,7-dimethoxyquinazolin-4-ylsulfanyl)phenyl]thiourea]",,,,,
13.3,12.2,0.35,0.14,14.8,147.5 to 149.6,"COc1cc2ncnc(Oc3cccc(NC(=S)Nc4cccc(C(F)(F)F)c4)c3)c2cc1OC [Compound 10e, 1-(3-Trifluoromethylphenyl)-3-[3-(6,7-dimethoxyquinazolin-4-yloxy)phenyl]thiourea]",,,,,
16,49.5,7.06,4.88,19.4,181.3 to 184.1,"COc1cc2ncnc(Oc3cccc(NC(=S)Nc4ccc(F)c(F)c4)c3)c2cc1OC [Compound 10h, 1-(3,4-Difluorophenyl)-3-[3-(6,7-dimethoxyquinazolin-4-yloxy)phenyl]thiourea]",,,,,

# Source: paper PMC5943947 (Molecules : A Journal of Synthetic Chemistry and Natural …, 2017)
